# Experimental data: US5591758A, “Organic nitrates, processes for their preparation and their use in the treatment of cardiovascular diseases” (Laboratoires Hoechst, SA, priority 1991, dated 1997)
# Several values for one entry are separate records, joined by “and”; a condition that tells them apart may be missing. Equal entries are not always repeated.
# Tested on: anaesthetised dogs
# Assay: Tachyphylaxis model on anaesthetised dogs (repeated i.d. administration)
# Assay type: in vivo, dogs (labrador/harrier cross)
# Set-up: Δdp/dt average / ΔBPs / ΔBPd / ΔLVEDP / ΔHR / ΔBPs average / ΔBPd average / ΔLVEDP average / ΔHR average: unit not given here
# Conditions: for ΔBPd / ΔBPs / ΔHR / ΔLVEDP / Δdp/dt: single dog
# Description: Comparison with isosorbide mononitrate (IS-5-MN).
# The product (46) is tested in a tachyphylaxis model on anaesthetised dogs. IS-5-MN is used as reference substance.
# 8 dogs of each sex, weighing between 16 and 24 kg, are used. These dogs are the progeny of a labrador/harrier cross. Anaesthesia is induced with the aid of sodium pentobarbital (45 mg/kg i.v.) and maintained by i.v. perfusion (flow rate: 8 mg/kg/h). The animals are ventilated, with the aid of a "Bird Mark 7" respirator, using ambient air, and catheterised. […] The arterial blood gases are measured at regular intervals.
# IS-5-MN is also dissolved in water and given i.d. in a dosage of 5 mg/kg in a volume of 10 ml/animal.
# Three hours (in the case of IS-5-MN) or four hours (in the case of (46)) after the first administration, the compounds are readministered in the same dosage and by the same route. The haemodynamic parameter chosen for the study of the tachyphylaxis is the systolic blood pressure (BPs), insofar as this parameter is very sensitive to the administration of the compounds.
# [1] = 1st administration, 5 mg/kg i.d., 5 min
# [2] = 1st administration, 5 mg/kg i.d., 10 min
# [3] = 1st administration, 5 mg/kg i.d., 15 min
# [4] = 1st administration, 5 mg/kg i.d., 30 min
# [5] = 1st administration, 5 mg/kg i.d., 60 min
# [6] = 1st administration, 5 mg/kg i.d., 120 min
# [7] = 1st administration, 5 mg/kg i.d., 180 min
# [8] = i.d., IS-5-MN 5 mg/kg, (46) 0.75 mg/kg
# [9] = n = 4, 2nd administration, 5 mg/kg i.d., 5 min
# [10] = n = 4, 2nd administration, 5 mg/kg i.d., 10 min
# [11] = n = 4, 2nd administration, 5 mg/kg i.d., 15 min
# [12] = n = 4, 2nd administration, 5 mg/kg i.d., 30 min
# [13] = n = 4, 2nd administration, 5 mg/kg i.d., 60 min
# [14] = n = 4, 2nd administration, 5 mg/kg i.d., 120 min
# [15] = n = 4, 2nd administration, 5 mg/kg i.d., 180 min
# [16] = 1st administration, 5 mg/kg i.d., 5 min, 5 mg/kg
# [17] = 1st administration, 5 mg/kg i.d., 10 min, 5 mg/kg
# [18] = 1st administration, 5 mg/kg i.d., 15 min, 5 mg/kg
# [19] = 1st administration, 5 mg/kg i.d., 30 min, 5 mg/kg
# [20] = 1st administration, 5 mg/kg i.d., 60 min, 5 mg/kg
# [21] = 1st administration, 5 mg/kg i.d., 120 min, 5 mg/kg
# [22] = 1st administration, 5 mg/kg i.d., 180 min, 5 mg/kg
# [23] = 2nd administration, 5 mg/kg i.d., 5 min, 5 mg/kg
# [24] = 2nd administration, 5 mg/kg i.d., 10 min, 5 mg/kg
# [25] = 2nd administration, 5 mg/kg i.d., 15 min, 5 mg/kg
# [26] = 2nd administration, 5 mg/kg i.d., 30 min, 5 mg/kg
# [27] = 2nd administration, 5 mg/kg i.d., 60 min, 5 mg/kg
# [28] = 2nd administration, 5 mg/kg i.d., 120 min, 5 mg/kg
# [29] = 2nd administration, 5 mg/kg i.d., 180 min, 5 mg/kg
smiles,measurement,setting,value
"O=[N+]([O-])O[C@@H]1CO[C@H]2[C@@H]1OC[C@@H]2O [IS-5-MN, isosorbide 5-mononitrate, reference compound]","fall in the BPs, first administration, on average",5 mg/kg i.d.,-30 mmHg
same,return of BP to control value after second administration,5 mg/kg i.d.,rapid return to the control value
same,ΔBPd average,[1],-21
same,ΔBPs average,[1],-30
same,ΔLVEDP average,[1],-3
same,Δdp/dt average,[1],-175
same,ΔBPd average,[2],-18
same,ΔBPs average,[2],-26
same,ΔLVEDP average,[2],-3
same,Δdp/dt average,[2],-175
same,ΔBPd average,[3],-16
same,ΔBPs average,[3],-25
same,ΔLVEDP average,[3],-3
same,Δdp/dt average,[3],-150
same,ΔBPd average,[4],-13
same,ΔBPs average,[4],-24
same,ΔLVEDP average,[4],-3
same,Δdp/dt average,[4],-175
same,ΔBPd average,[5],-12
same,ΔBPs average,[5],-23
same,ΔLVEDP average,[5],-1
same,Δdp/dt average,[5],-200
same,ΔBPd average,[6],3
same,ΔBPs average,[6],-5
same,ΔLVEDP average,[6],-2
same,Δdp/dt average,[6],75
same,ΔBPd average,[7],3
same,ΔBPs average,[7],-4
same,ΔLVEDP average,[7],-2
same,Δdp/dt average,[7],100
same,development of tachyphylaxis after repeated administration,"dogs, two i.d. administrations",tachyphylaxis after repeated administration
same,maximum fall in the BP after second administration,[8],-19 mmHg
same,time of maximum effect on BPs after first administration,[8],5 min
same,time of maximum fall in the BP after second administration,[8],5 min
same,ΔBPd average,[9],-13
same,ΔBPs average,[9],-19
same,ΔLVEDP average,[9],-1
same,Δdp/dt average,[9],-125
same,ΔBPd average,[10],-11
same,ΔBPs average,[10],-15
same,ΔLVEDP average,[10],-2
same,Δdp/dt average,[10],-75
same,ΔBPd average,[11],-9
same,ΔBPs average,[11],-13
same,ΔLVEDP average,[11],-1
same,Δdp/dt average,[11],-100
same,ΔBPd average,[12],-5
same,ΔBPs average,[12],-9
same,ΔLVEDP average,[12],-1
same,Δdp/dt average,[12],0
same,ΔBPd average,[13],-4
same,ΔBPs average,[13],-7
same,ΔLVEDP average,[13],-2
same,Δdp/dt average,[13],50
same,ΔBPd average,[14],-5
same,ΔBPs average,[14],-6
same,ΔLVEDP average,[14],-1
same,Δdp/dt average,[14],100
same,ΔBPd average,[15],-1
same,ΔBPs average,[15],-4
same,ΔLVEDP average,[15],-2
same,Δdp/dt average,[15],175
same,ΔBPd,[16],-15 and -25 and -20
same,ΔBPs,[16],-25 and -35 and -30
same,ΔHR,[16],0 and 5
same,ΔLVEDP,[16],-3 and -4 and -2
same,Δdp/dt,[16],-200 and -100 and -300
same,ΔBPd,[17],-15 and -20
same,ΔBPs,[17],-25 and -30
same,ΔHR,[17],0 and 5
same,ΔLVEDP,[17],-3 and -5 and -1
same,Δdp/dt,[17],-300 and 0 and -100
same,ΔBPd,[18],-15 and -10 and -20
same,ΔBPs,[18],-25 and -20 and -30
same,ΔHR,[18],-5 and 5 and 0
same,ΔLVEDP,[18],-3 and -5 and -1
same,Δdp/dt,[18],-200 and 0 and -100 and -300
same,ΔBPd,[19],-15 and -10
same,ΔBPs,[19],-35 and -20 and -25 and -15
same,ΔHR,[19],-15 and 5 and 0
same,ΔLVEDP,[19],-1 and -5 and -3
same,Δdp/dt,[19],-300 and 0 and -100
same,ΔBPd,[20],-20 and 0 and -15
same,ΔBPs,[20],-35 and -10 and -25 and -20
same,ΔHR,[20],-20 and 10 and -5 and 0
same,ΔLVEDP,[20],0 and -2 and -3 and -1
same,Δdp/dt,[20],-400 and 0 and -100 and -300
same,ΔBPd,[21],10 and 0 and -5 and 5
same,ΔBPs,[21],0 and -15 and -5
same,ΔHR,[21],0 and 10 and 5
same,ΔLVEDP,[21],-1 and -3 and -2
same,Δdp/dt,[21],400 and 0 and -100
same,Δdp/dt,[7],100
same,ΔBPd,[22],5 and 0 and -5 and 10
same,ΔBPs,[22],-5 and 0 and -15 and 5
same,ΔHR,[22],-5 and 10 and 5
same,ΔLVEDP,[22],-3 and -1 and -5 and 0
same,ΔBPd,[23],-5 and -15
same,ΔBPs,[23],-15 and -20
same,ΔHR,[23],0 and 5
same,ΔLVEDP,[23],-2 and 0
same,Δdp/dt,[23],-200 and -100
same,ΔBPs,"2nd administration, 5 mg/kg i.d., 10 min",-15
same,ΔBPd,[24],-5 and -15
same,ΔHR,[24],0 and 5
same,ΔLVEDP,[24],-2 and -1
same,Δdp/dt,[24],-200 and 0 and -100
same,Δdp/dt,"2nd administration, 5 mg/kg i.d., 15 min",-100
same,ΔBPd,[25],-5 and -15 and -10
same,ΔBPs,[25],-15 and -10
same,ΔHR,[25],-5 and 0 and 5
same,ΔLVEDP,[25],-2 and -1 and 0
same,Δdp/dt,"2nd administration, 5 mg/kg i.d., 30 min",0
same,ΔBPd,[26],0 and -10 and -5
same,ΔBPs,[26],-10 and -5
same,ΔHR,[26],0 and 5
same,ΔLVEDP,[26],-2 and -1 and 0
same,ΔBPd,[27],5 and -10 and 0
same,ΔBPs,[27],0 and -10 and -15 and -5
same,ΔHR,[27],5 and 0 and -5
same,ΔLVEDP,[27],-2 and -3 and -1
same,Δdp/dt,[27],100 and 0 and -100 and 200
same,ΔBPd,[28],0 and -15 and -5
same,ΔBPs,[28],-5 and -15 and 0
same,ΔHR,[28],5 and -5 and 10
same,ΔLVEDP,[28],-2 and 1
same,Δdp/dt,[28],0 and 100 and 300
same,ΔBPd,[29],0 and -5
same,ΔBPs,[29],-5 and 0
same,ΔHR,[29],5 and 15 and 0
same,ΔLVEDP,[29],-2 and -3 and -1
same,Δdp/dt,[29],100 and 200 and 300
